According to paper PMC3684443 (ACS chemical biology, 2012):

Legend:
HNSCC = settings: cited from earlier work
[1] = system: HNSCC cell line 1483 xenograft tumors; assay: Antitumor effect in HNSCC xenograft model, tumor volume; type: in vivo, Athymic nude mice; settings: 2 weeks treatment, comparison between the three treated groups

C#Cc1cccc(Nc2ncnc3cc(OCCOC)c(OCCOC)cc23)c1 [erlotinib]
Clinical response rate (HNSCC; HNSCC and NSCLC patients): 4%
Disease stabilization (HNSCC; phase II trial, for 16 weeks): 38%
Response rate (HNSCC; phase II trial): 4%
Response among erlotinib, cetuximab and EGFRAS-GPNA groups [1]: no significant difference
